Biological target: T1, EGFR (Homo sapiens, UniProt P00533)
T1 construct: endogenous in cells; host or cells: A431 cells (lysate, captured with SUMO1 anti-EGFR antibody)
Assay: Biochemical EGFR Assay
Parameters: concentration or dose not given beside the values
Conditions: protocol P.167
Summary of the method: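 EGFR from A431 lysate was captured on anti-EGFR-coated wells and preincubated 30 min with compound (diluted 1:10 in TBS) at room temperature. After ATP/MnCl2 phosphorylation for 5 min, the reaction was stopped with EDTA. Phosphotyrosine was detected by ELISA (anti-phosphotyrosine, peroxidase conjugate, ABTS) at 410 nm.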

T1 sequence (P00533 25-1210): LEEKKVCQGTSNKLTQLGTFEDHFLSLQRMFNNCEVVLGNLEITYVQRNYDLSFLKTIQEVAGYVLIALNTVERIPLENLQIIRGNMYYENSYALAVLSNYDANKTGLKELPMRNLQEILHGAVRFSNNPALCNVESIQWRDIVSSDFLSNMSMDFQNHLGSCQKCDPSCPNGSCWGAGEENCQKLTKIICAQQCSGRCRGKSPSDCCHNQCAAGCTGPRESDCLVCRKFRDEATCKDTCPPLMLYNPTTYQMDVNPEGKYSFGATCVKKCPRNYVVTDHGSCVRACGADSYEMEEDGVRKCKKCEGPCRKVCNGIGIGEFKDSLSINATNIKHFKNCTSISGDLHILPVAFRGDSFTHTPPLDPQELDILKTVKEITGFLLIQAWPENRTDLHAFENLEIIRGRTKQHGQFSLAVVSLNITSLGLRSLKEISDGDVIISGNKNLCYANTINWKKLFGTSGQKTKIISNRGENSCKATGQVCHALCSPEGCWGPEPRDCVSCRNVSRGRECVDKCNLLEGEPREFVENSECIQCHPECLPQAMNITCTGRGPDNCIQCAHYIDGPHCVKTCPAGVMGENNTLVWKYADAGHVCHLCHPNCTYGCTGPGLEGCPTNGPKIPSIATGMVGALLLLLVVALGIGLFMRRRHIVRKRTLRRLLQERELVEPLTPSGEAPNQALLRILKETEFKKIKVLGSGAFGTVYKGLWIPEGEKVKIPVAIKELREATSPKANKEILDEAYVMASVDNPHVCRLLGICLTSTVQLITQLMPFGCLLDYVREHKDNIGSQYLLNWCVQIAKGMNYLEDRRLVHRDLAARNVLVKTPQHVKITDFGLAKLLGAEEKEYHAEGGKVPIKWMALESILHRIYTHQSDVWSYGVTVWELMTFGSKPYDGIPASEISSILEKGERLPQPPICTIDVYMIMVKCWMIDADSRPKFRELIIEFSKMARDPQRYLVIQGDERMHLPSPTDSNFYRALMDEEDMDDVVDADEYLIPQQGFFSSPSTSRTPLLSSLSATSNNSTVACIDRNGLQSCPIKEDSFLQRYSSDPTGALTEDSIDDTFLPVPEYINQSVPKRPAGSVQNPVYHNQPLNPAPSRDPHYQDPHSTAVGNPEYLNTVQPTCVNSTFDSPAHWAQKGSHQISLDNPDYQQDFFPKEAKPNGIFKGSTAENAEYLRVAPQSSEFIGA

Row | SMILES | Biochem EGFR % Inhibition (P.167)
1 | Cc1c(Br)cc(Br)c2c1C(=Cc1cc(O)cc(O)c1)C(=O)N2 [10738/H07] | −13.4%
2 | Cc1c(Br)cc(Br)c2c1C(=Cc1ccc(Cl)c(Cl)c1)C(=O)N2 [10738/H08] | −12.1%
3 | COc1ccccc1C=C1C(=O)Nc2c(Br)cc(Br)c(C)c21 [10738/H09] | 1.6%
4 | Cc1c(Br)cc(Br)c2c1C(=Cc1ccc(C(C)C)cc1)C(=O)N2 [10738/H10] | 11.4%
5 | CCCOc1ccc(C=C2C(=O)Nc3c(Br)cc(Br)c(C)c32)cc1 [10738/H11] | −13.4%
6 | COc1ccc(C=C2C(=O)Nc3c(Br)cc(Br)cc32)cc1C [10739/A02] | 0.0%
7 | O=C1Nc2c(Br)cc(Br)cc2C1=Cc1cccc(OCc2ccccc2)c1 [10739/A03] | 5.1%
8 | O=C1Nc2c(Br)cc(Br)cc2C1=Cc1ccc(OCc2ccccc2)cc1 [10739/A04] | −6.3%
9 | O=C1Nc2c(Br)cc(Br)cc2C1=CC1COc2ccccc2O1 (centres unmarked) [10739/A05] | 10.7%
10 | O=C1Nc2c(Br)cc(Br)cc2C1=Cc1ccc(O)cc1Cl [10739/A06] | −5.5%
11 | O=C1Nc2c(Br)cc(Br)cc2C1=Cc1cc(O)c(O)c(O)c1 [10739/A07] | 65.6%
12 | COc1ccc(Oc2cccc(C=C3C(=O)Nc4c(Br)cc(Br)cc43)c2)cc1 [10739/A08] | 6.2%
13 | CN(C)CCCOc1ccc(C=C2C(=O)Nc3c(Br)cc(Br)cc32)cc1 [10739/A09] | 26.9%
14 | O=C1Nc2c(Br)cc(Br)cc2C1=Cc1ccoc1 [10739/A10] | 20.7%
15 | O=C1Nc2c(Br)cc(Br)cc2C1=Cc1ccc(CO)o1 [10739/A11] | −8.7%
16 | COc1ccc(C=C2C(=O)Nc3ccc(I)cc32)cc1C [10739/B02] | 18.1%
17 | O=C1Nc2ccc(I)cc2C1=Cc1cccc(OCc2ccccc2)c1 [10739/B03] | 9.6%
18 | O=C1Nc2ccc(I)cc2C1=Cc1ccc(OCc2ccccc2)cc1 [10739/B04] | 17.5%
19 | O=C1Nc2ccc(I)cc2C1=CC1COc2ccccc2O1 (centres unmarked) [10739/B05] | 32.0%
20 | O=C1Nc2ccc(I)cc2C1=Cc1ccc(O)cc1Cl [10739/B06] | 9.2%
21 | O=C1Nc2ccc(I)cc2C1=Cc1cc(O)c(O)c(O)c1 [10739/B07] | 59.4%
22 | COc1ccc(Oc2cccc(C=C3C(=O)Nc4ccc(I)cc43)c2)cc1 [10739/B08] | 19.8%
23 | CN(C)CCCOc1ccc(C=C2C(=O)Nc3ccc(I)cc32)cc1 [10739/B09] | 11.9%
24 | O=C1Nc2ccc(I)cc2C1=Cc1ccoc1 [10739/B10] | −2.1%
25 | O=C1Nc2ccc(I)cc2C1=Cc1ccc(CO)o1 [10739/B11] | −4.2%
26 | COc1ccc(C=C2C(=O)Nc3ccc(Br)c(C)c32)cc1C [10739/C02] | −1.7%

Row | SMILES | Biochem EGFR % Inhibition (P.167)
27 | Cc1c(Br)ccc2c1C(=Cc1cccc(OCc3ccccc3)c1)C(=O)N2 [10739/C03] | 18.3%
28 | Cc1c(Br)ccc2c1C(=Cc1ccc(OCc3ccccc3)cc1)C(=O)N2 [10739/C04] | 1.5%
29 | Cc1c(Br)ccc2c1C(=CC1COc3ccccc3O1)C(=O)N2 (centres unmarked) [10739/C05] | −1.7%
30 | Cc1c(Br)ccc2c1C(=Cc1ccc(O)cc1Cl)C(=O)N2 [10739/C06] | −17.0%
31 | Cc1c(Br)ccc2c1C(=Cc1cc(O)c(O)c(O)c1)C(=O)N2 [10739/C07] | 34.7%
32 | COc1ccc(Oc2cccc(C=C3C(=O)Nc4ccc(Br)c(C)c43)c2)cc1 [10739/C08] | −1.7%
33 | Cc1c(Br)ccc2c1C(=Cc1ccc(OCCCN(C)C)cc1)C(=O)N2 [10739/C09] | −2.7%
34 | Cc1c(Br)ccc2c1C(=Cc1ccoc1)C(=O)N2 [10739/C10] | −7.0%
35 | Cc1c(Br)ccc2c1C(=Cc1ccc(CO)o1)C(=O)N2 [10739/C11] | −17.0%
36 | CNS(=O)(=O)c1ccc2c(c1)C(=Cc1ccc(OC)c(C)c1)C(=O)N2 [10739/D02] | 2.6%
37 | CNS(=O)(=O)c1ccc2c(c1)C(=Cc1cccc(OCc3ccccc3)c1)C(=O)N2 [10739/D03] | 24.7%
38 | CNS(=O)(=O)c1ccc2c(c1)C(=Cc1ccc(OCc3ccccc3)cc1)C(=O)N2 [10739/D04] | −6.4%
39 | CNS(=O)(=O)c1ccc2c(c1)C(=CC1COc3ccccc3O1)C(=O)N2 (centres unmarked) [10739/D05] | −10.6%
40 | CNS(=O)(=O)c1ccc2c(c1)C(=Cc1ccc(O)cc1Cl)C(=O)N2 [10739/D06] | −19.8%
41 | CNS(=O)(=O)c1ccc2c(c1)C(=Cc1cc(O)c(O)c(O)c1)C(=O)N2 [10739/D07] | 21.1%
42 | CNS(=O)(=O)c1ccc2c(c1)C(=Cc1cccc(Oc3ccc(OC)cc3)c1)C(=O)N2 [10739/D08] | −16.8%
43 | CNS(=O)(=O)c1ccc2c(c1)C(=Cc1ccc(OCCCN(C)C)cc1)C(=O)N2 [10739/D09] | −15.1%
44 | COc1ccc(C=C2C(=O)Nc3ccc(S(=O)(=O)Nc4ccc(C(F)(F)F)cc4)cc32)cc1C [10739/E02] | −8.3%
45 | O=C1Nc2ccc(S(=O)(=O)Nc3ccc(C(F)(F)F)cc3)cc2C1=Cc1cccc(OCc2ccccc2)c1 [10739/E03] | 4.9%
46 | O=C1Nc2ccc(S(=O)(=O)Nc3ccc(C(F)(F)F)cc3)cc2C1=Cc1ccc(OCc2ccccc2)cc1 [10739/E04] | −35.5%
47 | O=C1Nc2ccc(S(=O)(=O)Nc3ccc(C(F)(F)F)cc3)cc2C1=CC1COc2ccccc2O1 (centres unmarked) [10739/E05] | −11.3%
48 | O=C1Nc2ccc(S(=O)(=O)Nc3ccc(C(F)(F)F)cc3)cc2C1=Cc1ccc(O)cc1Cl [10739/E06] | 33.5%
49 | O=C1Nc2ccc(S(=O)(=O)Nc3ccc(C(F)(F)F)cc3)cc2C1=Cc1cc(O)c(O)c(O)c1 [10739/E07] | 79.6%
50 | COc1ccc(Oc2cccc(C=C3C(=O)Nc4ccc(S(=O)(=O)Nc5ccc(C(F)(F)F)cc5)cc43)c2)cc1 [10739/E08] | −17.4%
51 | CN(C)CCCOc1ccc(C=C2C(=O)Nc3ccc(S(=O)(=O)Nc4ccc(C(F)(F)F)cc4)cc32)cc1 [10739/E09] | 15.2%
52 | O=C1Nc2ccc(S(=O)(=O)Nc3ccc(C(F)(F)F)cc3)cc2C1=Cc1ccoc1 [10739/E10] | 17.5%

Row | SMILES | Biochem EGFR % Inhibition (P.167)
53 | O=C1Nc2ccc(S(=O)(=O)Nc3ccc(C(F)(F)F)cc3)cc2C1=Cc1ccc(CO)o1 [10739/E11] | −23.4%
54 | COc1ccc(C=C2C(=O)Nc3ccc(S(=O)(=O)N4CCOCC4)cc32)cc1C [10739/F02] | −3.6%
55 | O=C1Nc2ccc(S(=O)(=O)N3CCOCC3)cc2C1=Cc1cccc(OCc2ccccc2)c1 [10739/F03] | −10.8%
56 | O=C1Nc2ccc(S(=O)(=O)N3CCOCC3)cc2C1=Cc1ccc(OCc2ccccc2)cc1 [10739/F04] | −7.0%
57 | O=C1Nc2ccc(S(=O)(=O)N3CCOCC3)cc2C1=CC1COc2ccccc2O1 (centres unmarked) [10739/F05] | −16.4%
58 | O=C1Nc2ccc(S(=O)(=O)N3CCOCC3)cc2C1=Cc1ccc(O)cc1Cl [10739/F06] | −15.3%
59 | O=C1Nc2ccc(S(=O)(=O)N3CCOCC3)cc2C1=Cc1cc(O)c(O)c(O)c1 [10739/F07] | 62.4%
60 | COc1ccc(Oc2cccc(C=C3C(=O)Nc4ccc(S(=O)(=O)N5CCOCC5)cc43)c2)cc1 [10739/F08] | −19.1%
61 | CN(C)CCCOc1ccc(C=C2C(=O)Nc3ccc(S(=O)(=O)N4CCOCC4)cc32)cc1 [10739/F09] | −19.6%
62 | O=C1Nc2ccc(S(=O)(=O)N3CCOCC3)cc2C1=Cc1ccoc1 [10739/F10] | −16.8%
63 | O=C1Nc2ccc(S(=O)(=O)N3CCOCC3)cc2C1=Cc1ccc(CO)o1 [10739/F11] | −38.5%
64 | COc1ccc(C=C2C(=O)Nc3ccc(CCCl)cc32)cc1C [10739/G02] | −5.1%
65 | O=C1Nc2ccc(CCCl)cc2C1=Cc1cccc(OCc2ccccc2)c1 [10739/G03] | 2.4%
66 | O=C1Nc2ccc(CCCl)cc2C1=Cc1ccc(OCc2ccccc2)cc1 [10739/G04] | −12.3%
67 | O=C1Nc2ccc(CCCl)cc2C1=CC1COc2ccccc2O1 (centres unmarked) [10739/G05] | −23.0%
68 | O=C1Nc2ccc(CCCl)cc2C1=Cc1ccc(O)cc1Cl [10739/G06] | −31.2%
69 | O=C1Nc2ccc(CCCl)cc2C1=Cc1cc(O)c(O)c(O)c1 [10739/G07] | 10.0%
70 | COc1ccc(Oc2cccc(C=C3C(=O)Nc4ccc(CCCl)cc43)c2)cc1 [10739/G08] | −18.5%
71 | CN(C)CCCOc1ccc(C=C2C(=O)Nc3ccc(CCCl)cc32)cc1 [10739/G09] | −39.8%
72 | O=C1Nc2ccc(CCCl)cc2C1=Cc1ccoc1 [10739/G10] | −38.1%
73 | O=C1Nc2ccc(CCCl)cc2C1=Cc1ccc(CO)o1 [10739/G11] | −23.2%
74 | COc1ccc(C=C2C(=O)Nc3c(Br)cc(Br)c(C)c32)cc1C [10739/H02] | −12.3%
75 | Cc1c(Br)cc(Br)c2c1C(=Cc1cccc(OCc3ccccc3)c1)C(=O)N2 [10739/H03] | 10.0%
76 | Cc1c(Br)cc(Br)c2c1C(=Cc1ccc(OCc3ccccc3)cc1)C(=O)N2 [10739/H04] | −21.9%
77 | Cc1c(Br)cc(Br)c2c1C(=Cc1ccc(O)cc1Cl)C(=O)N2 [10739/H06] | −22.1%
